{"source": "patent US20220362262A1", "about": "“METHODS AND COMPOSITIONS FOR TISSUE REGENERATION” (Institute of Zoology, Chinese Academy of Sciences, priority 2019, published 2022)", "key": {"PPARG": {"tested_on": "PPARG", "settings": "agonist of PPARG; cited from earlier work"}, "PPARA": {"tested_on": "PPARA", "settings": "agonist of PPARA; cited from earlier work"}, "[1]": {"tested_on": "muscle stem cells and myoblasts in gastrocnemius, quadriceps and TA muscle", "test": "Stem cell and myoblast activation in skeletal muscles without injury, immunofluorescence 2 days after single bolus", "type": "in vivo, mice", "settings": "gastrocnemius muscle, 2 days after intraperitoneal single bolus, with or without fenofibrate or WY-14643", "source_text": "(§1) Some tissues were flash frozen for cryosectioning."}, "[2]": {"tested_on": "GFP+ human myocytes engrafted into cryoinjured TA muscle", "settings": "myoblasts pre-treated 0-24 h, injected 24 h after cryoinjury", "source_text": "as §1"}, "[3]": {"tested_on": "cryoinjured tibialis anterior (TA) muscle", "experimental": "Eight week old NOD scid gamma (NSG) or C57BL/6 mice were anaesthetized with a mixture of ketamine and xylazine (120 mg/kg and 8 mg/kg respectively) via intraperitoneal injection. After successful anesthetization, the skin over the tibialis anterior (TA) or gastrocnemius or quadriceps muscle was disinfected by wiping with 70% ethanol and a 3 mm incision was made over the TA muscle. A dry-ice-chilled 4-mm metal probe was directly applied onto the exposed skeletal muscle for three cycles of five seconds to induce cryo-injury. Thereafter, the incision was immediately sutured using a surgical suture stapler. Upon recovery under heat lamps for a period of 2 hours, the mice were randomly allocated to each treatment groups. […] Samples were serially sectioned until depleted and haemotoxylin and eosin (H&E) staining was performed on every 12th 5 um-thick tissue section. After microscopy imaging, the area of the cryo-injured myofibers was quantified using ImageJ. For western blot samples, TA muscles were snap-frozen in liquid nitrogen and homogenized in RIPA buffer (Thermo Fisher) supplemented with protease inhibitor cocktails I and II (Merck) and phosphatase inhibitor cocktail set III (Merck) using TissueLyser II (Qiagen)."}, "[4]": {"tested_on": "primary human myoblasts / myocytes", "experimental": "Primary human skeletal muscle (HSKM) progenitors (Gibco) were cultured on gelatin solution (0.1%, Merck-Millipore)-coated plate and incubated in a humidified atmosphere (5% CO2 and 37° C.) with growth medium composed of DMEM/F-12 (Gibco) supplemented with fetal bovine serum (FBS) (20%, GE Healthcare), L-glutamine (1%, Gibco) and penicillin-streptomycin (1%, Gibco). Confluent HSKM progenitors were induced to differentiate by replacing growth media with differentiation medium, comprising of DMEM/F-12, KnockOut Serum Replacement (2%, Gibco), L-glutamine (1%, Gibco) and penicillin-streptomycin (1%, Gibco).\nRNA was extracted using TRIzol (Thermo Fisher) and reverse transcribed to cDNA with Superscript III (Thermo Fisher) according to manufacturer's instructions. The synthesized cDNA was diluted 5× in H2O before performing qPCR with KAPA SYBR FAST (Merck) on ABI Prism 7900HT (Applied Biosystems) real-time PCR system according to manufacturers' instructions.\nCells were washed with PBS (Thermo Fisher) and fixed with paraformaldehyde (PFA) (4%, Electron Microscopy Sciences) at room temperature for 10 mins. Cells were stained with primary antibody myosin heavy chain eFluor 660 (1:20, 50-6503-82, Thermo Fisher) at 4 C overnight. DAPI (Merck) was used as a nuclear counterstain according to manufacturer's recommendations. Stained cells were imaged with a Zeiss fluorescence microscope."}, "cryoinjured TA muscle": {"tested_on": "cryoinjured TA muscle", "test": "Muscle regeneration after cryoinjury: regenerative index, myogenic proteins, myofiber diameter, grip strength after bolus injection", "type": "in vivo, mice", "source_text": "as §1"}, "[5]": {"tested_on": "cryoinjured TA muscle of aged and sarcopenic 2-year-old mice", "experimental": "Liquid chromatography-tandem mass spectrometry (LC-MS/MS) metabolomics and lipidomics analyses were performed according to previously published protocols (Chong et al., 2012).\nEight week old NOD scid gamma (NSG) or C57BL/6 mice were anaesthetized with a mixture of ketamine and xylazine (120 mg/kg and 8 mg/kg respectively) via intraperitoneal injection. After successful anesthetization, the skin over the tibialis anterior (TA) or gastrocnemius or quadriceps muscle was disinfected by wiping with 70% ethanol and a 3 mm incision was made over the TA muscle. A dry-ice-chilled 4-mm metal probe was directly applied onto the exposed skeletal muscle for three cycles of five seconds to induce cryo-injury. Thereafter, the incision was immediately sutured using a surgical suture stapler. Upon recovery under heat lamps for a period of 2 hours, the mice were randomly allocated to each treatment groups. […] Samples were serially sectioned until depleted and haemotoxylin and eosin (H&E) staining was performed on every 12th 5 um-thick tissue section. After microscopy imaging, the area of the cryo-injured myofibers was quantified using ImageJ.\nTibialis anterior (TA) tissue samples embedded in paraffin were sectioned using a microtome and transferred onto Leica Microsystems Plus Slides. Some tissues were flash frozen for cryosectioning. Paraffin-embedded sections were deparaffinized in xylene (Merck) for 2 washes (10 mins) and then transferred sequentially into 100% EtOH (Merck), 100% EtOH, 95% EtOH and 70% EtOH (2 mins) at room temperature. The sections were then rehydrated in deionized water (3 mins). Antigen retrieval was carried out using the 2100 Retriever in sodium citrate buffer (Merck, pH 6.2, 30 mins). Slides were then cooled in cold PBS (15 mins) and blocked in blocking buffer at room temperature (30 mins). Primary antibody staining was conducted in blocking buffer at 4° C. overnight with the following antibodies, GFP (1:500, sc-9996, Santa Cruz), Pax7 (5 ug/ml, 042349, DSHB), MyoD (5 ug/ml, sc-377460, Santa Cruz), Ki67 (1:100, 14-5698-82, Thermo Fisher), embryonic MHC (Myh3; 1:100, sc-53091, Santa Cruz), PDGFRa (5 ug/mL, AF1062, R&D), F4/80 (1:100, ab6640, Abcam), PPARG (1:1000, 2443S, CST), and myosin heavy chain eFluor 660 (1:20, 50-6503-82, eBioscience). After the slides were washed thrice in PBS (10 mins) and counterstained with DAPI, secondary antibody staining for GFP was conducted in blocking buffer at room temperature (1 hr) with goat anti-mouse IgG secondary antibody, Alexa Fluor 488 (1:500, A11001, Thermo Fisher)."}, "[6]": {"tested_on": "pure primary human myoblasts", "test": "Pure primary human myoblasts treated with PGI2-related drugs (Western blot, qRT-PCR)", "type": "cell-based", "settings": "pure primary human myoblasts, relative to DMSO"}, "[7]": {"tested_on": "fibrosis in TA muscle, liver, skin and heart of 2-year old mice", "test": "Aging-induced fibrosis and fibrotic precursors in 2-year old mice after daily injection", "type": "in vivo", "settings": "for relative changes in the % fibrotic area (Masson trichrome staining) / relative changes in the percentage fraction of fibrotic precursors (PGDFRA-positive and Ki67-positive): 7 days post-injection, 2-year old mice", "source_text": "as §1"}, "[8]": {"settings": "2-year old mice, injected at 0 h after injury, 27 days post-injury"}}, "note": "“Also recorded” adds a separate entry of the source. Read-outs that look alike come from different tables or passages of the source."}
{"smiles": "Cc1cccc(Nc2cc(Cl)nc(SCC(=O)O)n2)c1C", "note": "[WY-14643, pirinixic acid]", "values": [{"measurement": "EC50", "setting": "PPARG", "result": 32, "unit": "µM"}, {"measurement": "EC50", "setting": "PPARA", "result": 0.63, "unit": "µM"}, {"measurement": "percentage fraction of myoblasts (MyoD-positive cells)", "setting": "[1]", "result": "significantly increased"}, {"measurement": "percentage fraction of proliferative myoblasts (MyoD-positive Ki67-positive cells)", "setting": "[1]", "result": "significantly increased"}]}
{"smiles": "CN(CCOc1ccc(CC2SC(=O)NC2=O)cc1)c1ccccn1", "note": "(centres unmarked) [rosiglitazone]", "values": [{"measurement": "MHC protein expression among the engrafting human myocytes", "setting": "[2]", "result": "significantly enhanced"}, {"measurement": "MHC protein isoforms and α-actinin protein levels (Western blot)", "setting": "[3]; injection at 24 h and 48 h, relative to control and 0 h", "result": "stronger expression"}, {"measurement": "skeletal muscle regeneration (remaining necrotic area)", "setting": "[3]; injection at 24 h and 48 h after injury, 4 days post-injury", "result": "improved skeletal muscle regeneration"}, {"measurement": "MyoD and MyoG protein expression (Western blot)", "setting": "[3]; intramuscular injection at 24 h post-cryoinjury, TA 4 days post-injury", "result": "elicited the strongest expression"}, {"measurement": "myogenesis (MHC protein and α-actinin immunostaining)", "setting": "[4]; 0-24 h and 24-48 h time-windows, low density", "result": "significantly enhanced myogenesis"}, {"measurement": "myotube/myofiber maturity and hypertrophy (immunofluorescence)", "setting": "[4]; 0-24 h time-window, high density", "result": "more mature and hypertrophic human myotubes; also recorded: significantly more mature and hypertrophic; also recorded: induces myofibers with wider diameter and higher expression of MHC and α-actinin"}, {"measurement": "mRNA levels of myogenin (MYOG), adult type I myosin heavy chain (MYH7) and perinatal myosin heavy chain (MYH8)", "setting": "[4]; 0-24 h time-window, low density, at the end of 96 h", "result": "uniquely upregulated"}, {"measurement": "myocyte/myotube size and MHC, α-actinin expression (immunofluorescence)", "setting": "[4]; different time-windows, low density conditions", "result": "induces larger myocytes and myotubes with higher expression levels of MHC and α-actinin"}, {"measurement": "mRNA levels of MYOG, MYH7 and MYH8", "setting": "[4]; other time-windows of treatment, low density, at the end of 96 h", "result": "no significant effects"}, {"measurement": "myogenesis (MHC protein and α-actinin immunostaining)", "setting": "[4]; other time-windows, low density", "result": "suppressed myogenesis"}, {"measurement": "grip strength", "setting": "cryoinjured TA muscle; 14 days post-injury, 6-week old mice, prostaglandin at 0 h, rosiglitazone at 24 h post-injury", "result": "partially restore grip strength"}, {"measurement": "hypertrophic growth (myofiber cross-sectional Feret diameters)", "setting": "cryoinjured TA muscle; TA muscle 6.5 days post-injury, prostaglandin at day 0, rosiglitazone at day 1", "result": "increase hypertrophic growth"}, {"measurement": "regenerative index (fraction of nuclei in embryonic MHC-positive myofibers)", "setting": "cryoinjured TA muscle; TA muscle 6.5 days post-injury, single bolus, combinations: prostaglandin at day 0, rosiglitazone at day 1, relative to DMSO vehicle", "result": "significantly increase muscle regeneration"}, {"measurement": "regenerative index (fraction of nuclei in embryonic MHC-positive myofibers)", "setting": "[5]; 2-year old mice, injected at 0 h after injury, 6 days post-injury", "result": "can restore aged muscle regeneration; also recorded: significantly improved"}, {"measurement": "fibrotic area in the TA muscle (Masson trichrome)", "setting": "[5]; [8]", "result": "can reverse the aged muscle fibrosis; also recorded: significantly reduced fibrosis"}, {"measurement": "grip strength", "setting": "[5]; [8]", "result": "can partially restore grip strength"}, {"measurement": "regenerative index (fraction of nuclei in embryonic MHC-positive myofibers)", "setting": "[5]; 2-year old mice, injected at 24 h and 48 h time-points", "result": "did not show as strong an improvement"}, {"measurement": "body weight or aging-induced obesity", "setting": "[5]; 2-year-old mice, 27 days after single intramuscular bolus", "result": "no significant changes; also recorded: insufficient to affect total body weight and obesity"}, {"measurement": "FAO intermediates (acyl-carnitines) / FAO flux in TA muscle, LC-MS/MS", "setting": "[5]; 2-year-old mice, bolus at 0 h post-injury, day 6", "result": "led to an induction; also recorded: transiently increase FAO flux"}, {"measurement": "H3K9ac and MyoD protein (Western blot)", "setting": "[6]", "result": "followed the same pattern of regulation as PPARG"}, {"measurement": "PPARG protein levels (Western blot)", "setting": "[6]", "result": "stabilize and/or upregulate"}, {"measurement": "relative changes in the % fibrotic area (Masson trichrome staining)", "setting": "[7]; TA muscle, daily injection", "result": "partially reverse the aged muscle fibrosis; also recorded: significant reversal of aging-induced fibrosis"}, {"measurement": "relative changes in the percentage fraction of fibrotic precursors (PGDFRA-positive and Ki67-positive)", "setting": "[7]; TA muscle, daily injection", "result": "partially suppress the aged muscle fibrotic precursors"}, {"measurement": "relative changes in the % fibrotic area (Masson trichrome staining)", "setting": "[7]; heart tissue, daily injection", "result": "partially reverse the aged cardiac fibrosis"}, {"measurement": "relative changes in the percentage fraction of fibrotic precursors (PGDFRA-positive and Ki67-positive)", "setting": "[7]; heart tissue, daily injection", "result": "partially suppress the aged cardiac fibrotic precursors"}, {"measurement": "relative changes in the % fibrotic area (Masson trichrome staining)", "setting": "[7]; liver tissue, daily injection", "result": "partially reverse the aged liver fibrosis"}, {"measurement": "relative changes in the percentage fraction of fibrotic precursors (PGDFRA-positive and Ki67-positive)", "setting": "[7]; liver tissue, daily injection", "result": "partially suppress the aged liver fibrotic precursors"}, {"measurement": "PDGFRA+ Ki67+ fibrotic precursor numbers in multiple non-skeletal muscle tissues", "setting": "[7]; liver, skin and heart, 2-year-old mice", "result": "suppress"}, {"measurement": "aging-induced fibrosis (fibrotic area) in multiple non-skeletal muscle tissues", "setting": "[7]; liver, skin and heart, daily injection, 2-year-old mice", "result": "significant reversal of aging-induced fibrosis"}, {"measurement": "relative changes in the % fibrotic area (Masson trichrome staining)", "setting": "[7]; skin tissue, daily injection", "result": "partially reverse the aged skin fibrosis"}, {"measurement": "relative changes in the percentage fraction of fibrotic precursors (PGDFRA-positive and Ki67-positive)", "setting": "[7]; skin tissue, daily injection", "result": "partially suppress the aged skin fibrotic precursors"}]}
